Structures can show the parent of a compound that is named as a salt.
Tests used:
Type in all cases: biochemical
[1] = biological target: LSD1 (Homo sapiens (Human), UniProt O60341); test: TR-FRET assay for LSD1 (Perkin Elmer)
Description: LSD1 enzyme was produced in house. Tranylcypromine (TCP), LSD1 inhibitor was procured from Selleckchem. LSD1 enzyme, TCP and Biotinylated peptide substrate were diluted in assay buffer just before use. 2× inhibitor (10 μL, diluted in assay buffer) or Assay Buffer, and 5 nM enzyme were added to a 96 well plate and incubated at room temperature for 30 min. […] Stop Solution containing 300 μM tranylcypromine in 1×LANCE Detection Buffer was added to the wells and incubated for 5 min at RT. Then, Detection mixture containing 2 nM Eu-Ab and 50 nM ULight-Streptavidin in 1×LANCE Detection Buffer was prepared and added to the reaction mixture. This mixture was incubated for 1 hour at room temperature.

[2] = biological target: HDAC6 (Homo sapiens (Human), UniProt Q9UBN7); test: Histone deacetylase assay (BPS Biosciences), HDAC6; details: human recombinant enzyme
HDAC6, sequence (Q9UBN7 whole entry): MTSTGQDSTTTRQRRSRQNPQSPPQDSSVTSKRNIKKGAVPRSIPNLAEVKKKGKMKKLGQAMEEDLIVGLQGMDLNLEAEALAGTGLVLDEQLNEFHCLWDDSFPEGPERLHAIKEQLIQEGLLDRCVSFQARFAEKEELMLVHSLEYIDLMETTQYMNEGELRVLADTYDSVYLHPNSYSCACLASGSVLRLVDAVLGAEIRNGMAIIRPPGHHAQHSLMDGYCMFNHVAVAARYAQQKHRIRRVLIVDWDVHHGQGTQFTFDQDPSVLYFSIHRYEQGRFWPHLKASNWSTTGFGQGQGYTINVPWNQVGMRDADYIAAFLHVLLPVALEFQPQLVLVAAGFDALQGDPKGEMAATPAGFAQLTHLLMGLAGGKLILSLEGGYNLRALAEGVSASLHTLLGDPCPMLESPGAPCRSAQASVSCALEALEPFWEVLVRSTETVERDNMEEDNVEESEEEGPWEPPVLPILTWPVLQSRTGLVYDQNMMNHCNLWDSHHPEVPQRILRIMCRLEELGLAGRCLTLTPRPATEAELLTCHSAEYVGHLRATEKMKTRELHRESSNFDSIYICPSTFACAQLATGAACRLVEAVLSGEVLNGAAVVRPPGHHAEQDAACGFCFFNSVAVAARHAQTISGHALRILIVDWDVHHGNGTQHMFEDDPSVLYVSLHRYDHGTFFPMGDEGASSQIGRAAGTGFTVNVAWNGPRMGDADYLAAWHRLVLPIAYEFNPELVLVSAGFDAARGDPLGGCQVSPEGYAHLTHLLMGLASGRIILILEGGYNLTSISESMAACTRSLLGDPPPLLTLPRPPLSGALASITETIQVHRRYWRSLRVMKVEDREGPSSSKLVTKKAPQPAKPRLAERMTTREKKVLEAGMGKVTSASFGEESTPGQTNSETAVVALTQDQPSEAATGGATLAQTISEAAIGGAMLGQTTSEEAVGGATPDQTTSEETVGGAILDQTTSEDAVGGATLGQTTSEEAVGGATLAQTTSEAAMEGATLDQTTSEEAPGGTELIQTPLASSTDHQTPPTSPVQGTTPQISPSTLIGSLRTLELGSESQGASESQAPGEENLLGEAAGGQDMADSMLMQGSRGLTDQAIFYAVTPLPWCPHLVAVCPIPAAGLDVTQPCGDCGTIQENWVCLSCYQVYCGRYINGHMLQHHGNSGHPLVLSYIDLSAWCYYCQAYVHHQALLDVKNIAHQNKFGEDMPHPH
Description: Histone deacetylase assay was done as per manufacturer's instructions. […] Fluorescence was measured at an excitation wavelength of 350-380 nm and emission wavelength of 440-480 nm.

[3] = biological target: HDAC1 (Homo sapiens (Human), UniProt Q13547); test: Histone deacetylase assay (BPS Biosciences), HDAC1; details: human recombinant enzyme
HDAC1, sequence (Q13547 whole entry): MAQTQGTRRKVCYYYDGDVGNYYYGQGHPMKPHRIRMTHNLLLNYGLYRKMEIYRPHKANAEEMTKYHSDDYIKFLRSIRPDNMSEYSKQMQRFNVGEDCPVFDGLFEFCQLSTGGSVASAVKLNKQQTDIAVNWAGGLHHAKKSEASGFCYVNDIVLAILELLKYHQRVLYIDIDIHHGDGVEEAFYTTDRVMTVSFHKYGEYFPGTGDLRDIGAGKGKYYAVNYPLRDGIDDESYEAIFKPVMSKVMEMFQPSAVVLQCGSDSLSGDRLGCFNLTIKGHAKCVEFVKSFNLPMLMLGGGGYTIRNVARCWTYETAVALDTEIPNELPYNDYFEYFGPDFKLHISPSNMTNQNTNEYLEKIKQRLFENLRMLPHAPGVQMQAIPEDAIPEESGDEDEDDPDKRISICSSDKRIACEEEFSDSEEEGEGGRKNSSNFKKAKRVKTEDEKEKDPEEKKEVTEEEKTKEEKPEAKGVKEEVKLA
Description: Histone deacetylase assay was done as per manufacturer's instructions. Briefly, assay buffer, 200 uM HDAC substrate (fluorogenic HDAC acetylated peptide substrate for class I HDACs (HDACs 1, 2 and 3) and class 2b HDACs (HDACs 6 and 10) and 1% BSA are taken as a master mixture and aliquoted as 40 uL per well. Compounds (10×) were diluted in assay buffer and were added to respective wells of a black 96 well plate. For HDAC1 (1.4 ng/μL) and for HDAC6 (7 ng/μL) human recombinant enzyme was thawed on ice and 5 μL of respective enzyme was added per well. The plate was incubated at 37° C. for 1 hour. Developer solution was then added (50 μL per well) and incubated at room temperature for 10 minutes. Fluorescence was measured at an excitation wavelength of 350-380 nm and emission wavelength of 440-480 nm.

Row | IC50 [1] | IC50 [2] | IC50 [3] | SMILES
1 | 27 nM | > 10000 nM | 181 nM | Nc1ccccc1NC(=O)c1ccc(Cn2cc(CN[C@@H]3C[C@H]3c3ccccc3)cn2)cc1 [Compound 30, N-(2-aminophenyl)-4-((4-((((1R,2S)-2-phenylcyclopropyl)amino)methyl)-1H-pyrazol-1-yl)methyl)benzamide]
2 | 671 nM | – | – | Nc1ccccc1NC(=O)c1ccc(Cn2cc(CN[C@@H]3C[C@H]3c3ccccc3)nn2)cc1 [Compound 29, N-(2-aminophenyl)-4-((4-((((1R,2S)-2-phenylcyclopropyl)amino)methyl)-1H-1,2,3-triazol-1-yl)methyl)benzamide]
3 | 20 nM | – | – | Cn1cc(-c2ccc([C@H]3C[C@@H]3NCC3CCN(Cc4ccc(C(=O)Nc5ccccc5N)cc4)CC3)cc2)ccc1=O [Compound 20, N-(2-aminophenyl)-4-((4-((((1S,2R)-2-(4-(1-methyl-6-oxo-1,6-dihydropvridin-3-yl)phenyl)cyclopropyl)amino)methyl)piperidin-1-yl)methyl)benzamide]
4 | 69 nM | – | – | Nc1ccccc1NC(=O)c1ccc(Cn2cc(CN[C@@H]3C[C@H]3c3ccc(F)cc3)nn2)cc1 [Compound 21, N-(2-aminophenyl)-4-((4-((((1R,2S)-2-(4-fluorophenyl)cyclopropyl)amino)methyl)-1H-1,2,3-triazol-1-yl)methyl)benzamide]
5 | 6 nM | – | – | Cc1noc(C)c1-c1ccc([C@@H]2C[C@H]2NCC2CCN(Cc3ccc(C(=O)Nc4ccccc4N)cc3)CC2)cc1 [Compound 27, N-(2-aminophenyl)-4-((4-((((1R,2S)-2-(4-(3,5-dimethylisoxazol-4-yl)phenyl)cyclopropyl)amino)methyl)piperidin-1-yl)methyl)benzamide]
6 | – | > 10000 nM | – | Nc1ccccc1NC(=O)c1ccc(CCCN2CCC(CN[C@H]3C[C@@H]3c3ccc(F)c(F)c3)CC2)cc1 [Compound 26, N-(2-aminophenyl)-4-(3-(4-((((1S,2R)-2-(3,4-difluorophenyl)cyclopropyl)amino)methyl)piperidin-1-yl)propyl)benzamide]
7 | 29 nM | – | – | Cc1noc(C)c1-c1ccc([C@H]2C[C@@H]2NCC2CCN(Cc3ccc(C(=O)Nc4ccccc4N)cc3)CC2)cc1 [Compound 28, N-(2-aminophenyl)-4-((4-((((1S,2R)-2-(4-(3,5-dimethylisoxazol-4-yl)phenyl)cyclopropyl)amino)methyl)piperidin-1-yl)methyl)benzamide]
8 | 6 nM | – | 8600 nM | Nc1ccccc1NC(=O)c1ccc(CCCN2CCC(CN[C@H]3C[C@@H]3c3cnn(-c4ccccc4)c3)CC2)cc1 [Compound 24, N-(2-aminophenyl)-4-(3-(4-((((1S,2R)-2-(1-phenyl-1H-pyrazol-4-yl)cyclopropyl)amino)methyl)piperidin-1-yl)propyl)benzamide]
9 | 854 nM | – | – | Nc1ccccc1NC(=O)c1ccc(Cn2cc(CN[C@H]3C[C@@H]3c3ccc(F)cc3)nn2)cc1 [Compound 22, N-(2-aminophenyl)-4-((4-((((1S,2R)-2-(4-fluorophenyl)cyclopropyl)amino)methyl)-1H-1,2,3-triazol-1-yl)methyl)benzamide]
10 | 10 nM | – | 262 nM | Nc1ccccc1NC(=O)c1ccc(CCCN2CCC(CN[C@@H]3C[C@H]3c3cnn(-c4ccccc4)c3)CC2)cc1 [Compound 23, N-(2-aminophenyl)-4-(3-(4-((((1R,2S)-2-(1-phenyl-1H-pyrazol-4-yl)cyclopropyl)amino)methyl)piperidin-1-yl)propyl)benzamide]

Continued, compound first:

Row | SMILES | IC50 [1] | IC50 [2] | IC50 [3]
11 | Nc1ccccc1NC(=O)c1ccc(CCCN2CCC(CN[C@@H]3C[C@H]3c3ccc(F)cc3)CC2)cc1 [Compound 15, N-(2-aminophenyl)-4-(3-(4-((((1R,2S)-2-(4-fluorophenyl)cyclopropyl)amino)methyl)piperidin-1-yl)propyl)benzamide] | – | – | 7720 nM
12 | O=C(NO)c1ccc(Cn2cc(CN[C@@H]3C[C@H]3c3ccccc3)cn2)cc1 [Compound 1, N-hydroxy-4-((4-((((1R,2S)-2-phenylcyclopropyl)amino)methyl)-1H-pyrazol-1-yl)methyl)benzamide hydrobromide] | – | – | 923 nM
13 | CN1C(=O)C(C)(C)c2cc([C@@H]3C[C@H]3NCC3CCN(CCCc4ccc(C(=O)NO)cc4)CC3)ccc21 [Compound 9, N-hydroxy-4-(3-(4-((((1R,2S)-2-(1,3,3-trimethyl-2-oxoindolin-5-yl)cyclopropyl)amino)methyl)piperidin-1-yl)propyl)benzamide] | 403 nM | 192 nM | –
14 | CC(C)n1cc([C@@H]2C[C@H]2NCC2CCN(CCCc3ccc(C(=O)Nc4ccccc4N)cc3)CC2)cn1 [Compound 17, N-(2-aminophenyl)-4-(3-(4-((((1R,2S)-2-(1-isopropyl-1H-pyrazol-4-yl)cyclopropyl)amino)methyl)piperidin-1-yl)propyl)benzamide] | 101 nM | – | 1040 nM
15 | O=C(NO)c1ccc(CCCN2CCC(CN[C@H]3C[C@@H]3c3ccc(-c4cncnc4)cc3)CC2)cc1 [Compound 8, N-hydroxy-4-(3-(4-((((1S,2R)-2-(4-(pyrimidin-5-yl)phenyl)cyclopropyl)amino)methyl)piperidin-1-yl)propyl)benzamide] | 8 nM | 159 nM | 2470 nM
16 | CC(C)n1cc([C@H]2C[C@@H]2NCC2CCN(CCCc3ccc(C(=O)Nc4ccccc4N)cc3)CC2)cn1 [Compound 18, N-(2-aminophenyl)-4-(3-(4-((((1S,2R)-2-(1-isopropyl-1H-pyrazol-4-yl)cyclopropyl)amino)methyl)piperidin-1-yl)propyl)benzamide] | 139 nM | – | 2890 nM
17 | O=C(NO)c1ccc(CCCN2CCC(CN[C@@H]3C[C@H]3c3ccc(-c4cncnc4)cc3)CC2)cc1 [Compound 7, N-hydroxy-4-(3-(4-((((1R,2S)-2-(4-(pyrimidin-5-yl)phenyl)cyclopropyl)amino)methyl)piperidin-1-yl)propyl)benzamide] | 6 nM | 151 nM | 4530 nM
18 | O=C(NO)c1ccc(CCCN2CCC(CN[C@@H]3C[C@H]3c3cnn(-c4ccccc4)c3)CC2)cc1 [Compound 3, N-hydroxy-4-(3-(4-((((1R,2S)-2-(1-phenyl-1H-pyrazol-4-yl)cyclopropyl)amino)methyl)piperidin-1-yl)propyl)benzamide] | 9 nM | 88 nM | –
19 | CN1C(=O)C(C)(C)c2cc([C@H]3C[C@@H]3NCC3CCN(CCCc4ccc(C(=O)NO)cc4)CC3)ccc21 [Compound 10, N-hydroxy-4-(3-(4-((((1S,2R)-2-(1,3,3-trimethyl-2-oxoindolin-5-yl)cyclopropyl)amino)methyl)piperidin-1-yl)propyl)benzamide] | 1210 nM | 135 nM | –
20 | O=C(NO)c1ccc(Cn2cc(CN[C@H]3C[C@@H]3c3ccccc3)cn2)cc1 [Compound 2, N-hydroxy-4-((4-((((1S,2R)-2-phenylcyclopropyl)amino)methyl)-1H-pyrazol-1-yl)methyl)benzamide] | – | – | 1550 nM
21 | O=C(NO)c1ccc(CCCN2CCC(CN[C@H]3C[C@@H]3c3cnn(-c4ccccc4)c3)CC2)cc1 [Compound 4, N-hydroxy-4-(3-(4-((((1S,2R)-2-(1-phenyl-1H-pyrazol-4-yl)cyclopropyl)amino)methyl)piperidin-1-yl)propyl)benzamide] | 5 nM | 72 nM | –
22 | O=C(NO)c1ccc(/C=C/C(=O)N2CC(CN[C@H]3C[C@@H]3c3ccc(F)cc3)C2)cc1 [Compound 6, 4-((E)-3-(3-((((1S,2R)-2-(4-fluorophenyl)cyclopropyl)amino)methyl)azetidin-1-yl)-3-oxoprop-1-en-1-yl)-N-hydroxybenzamide] | 147 nM | 144 nM | –
23 | Nc1ccccc1NC(=O)c1ccc(CCCN2CCC(CN[C@H]3C[C@@H]3c3ccc(F)cc3)CC2)cc1 [Compound 16, N-(2-aminophenyl)-4-(3-(4-((((1S,2R)-2-(4-fluorophenyl)cyclopropyl)amino)methyl)piperidin-1-yl)propyl)benzamide] | – | – | 295 nM
24 | Cn1cc(-c2ccc([C@@H]3C[C@H]3NCC3CCN(Cc4ccc(C(=O)Nc5ccccc5N)cc4)CC3)cc2)ccc1=O [Compound 19, N-(2-aminophenyl)-4-((4-((((1R,2S)-2-(4-(1-methyl-6-oxo-1,6-dihydropyridin-3-yl)phenyl)cyclopropyl)amino)methyl)piperidin-1-yl)methyl)benzamide] | 6 nM | – | –
25 | O=C(NO)c1ccc(/C=C/C(=O)N2CC(CN[C@@H]3C[C@H]3c3ccc(F)cc3)C2)cc1 [Compound 5, 4-((E)-3-(3-((((1R,2S)-2-(4-fluorophenyl)cyclopropyl)amino)methyl)azetidin-1-yl)-3-oxoprop-1-en-1-yl)-N-hydroxybenzamide] | 31 nM | 84 nM | –

— patent US20250162994A1, “DUAL LSD1/HDAC INHIBITORS” (JUBILANT EPICORE LLC, priority 2022, published 2025)
